{"source": "paper PMC9497102", "about": "“Thiosemicarbazone Derivatives Developed to Overcome COTI-2 Resistance” (Cancers, 2022)", "key": {"[1]": {"assay": "Iron(III) complex formation, UV-vis spectrophotometric titrations", "format": "physicochemical", "experimental": "(§1) The UV-vis spectra were recorded using an Agilent Cary 8454 diode array spectrophotometer in the 200 to 950 nm window, and the path length was varied between 1 and 5 cm, depending on the solubility (thus the applicable concentration). For the spectrophotometric titrations, the same instruments (Metrohm 665 Dosimat burette, Orion 710A pH-meter, Metrohm combined pH glass electrode) and experimental setup (ionic strength: 0.10 M (KCl); titrant: 0.10 M carbonate-free KOH solution in 30% (v/v) DMSO/H2O; samples: prepared in 30% (v/v) DMSO/H2O; calibration: method of Irving et al.; pH range: 1.0 to 13.5; and sample volume: 10 cm^3) were used as in our previous work. Argon overpressure was used for the Fe(II)-containing samples when the Fe(II) stock solution was added to the samples in tightly closed titration vessels, which were previously completely deoxygenated (for 20 min). Measurements were taken with ligands (10–80 μM, depending on solubility) in the presence of 1, 0.5, and 0.3 equiv. of Cu(II), Fe(II), and Fe(III) ions. Equilibrium constants, such as the proton dissociation constants (pKa) of the ligands, the overall stability constants (logβ) of the metal complexes, and the UV-vis spectra of the individual ligand or complex species were computed using the program PSEQUAD [18], as was the case in our previous works."}, "[2]": {"assay": "Parallel artificial membrane permeability assay (PAMPA)", "format": "in vitro ADME", "details": "pH 7.4, 25 °C, read-out: Peff", "experimental": "(§2) The thermodynamic solubility of COTI-NMeCy, COTI-Nme2, COTI-NH2, and COTI-2 was measured for the saturated solutions in water at pH 7.4 (20 mM HEPES buffer) at 25.0 ± 0.1 °C. The concentrations of the compounds were determined by UV-vis spectrophotometry using stock solutions of the compounds with known concentrations dissolved in pure DMSO, and 50% and 1% (v/v) DMSO/buffered aqueous solution for the calibration. The parallel artificial membrane permeability assay (PAMPA) was applied for the ligands with a Corning Gentest pre-coated PAMPA Plate System. Peff values were calculated according to the equation reported by Yu et al.."}, "[3]": {"assay": "Zinc(II) complex formation, UV-vis spectrophotometric titrations", "format": "physicochemical"}, "[4]": {"design": "method as in PMID 33190481", "details": "after formation of mixed-ligand GSH adduct; cited from earlier work"}, "SW480/Coti cells": {"test_system": "SW480/Coti cells", "design": "method as in PMID 33190481", "details": "cited from earlier work; for IC50: 72 h, MTT; for Relative Resistance SW480/Coti: IC50 of resistant subline divided by IC50 of parental SW480"}, "SW480/Tria cells": {"test_system": "SW480/Tria cells", "design": "method as in PMID 33190481", "details": "cited from earlier work; for IC50: 72 h, MTT; for Relative Resistance SW480/Tria: IC50 of resistant subline divided by IC50 of parental SW480"}, "[5]": {"assay": "Distribution coefficient, shake-flask n-octanol/buffer pH 7.4", "format": "physicochemical", "details": "n-octanol/buffered aqueous solution; n-octanol/water, pH 7.4, 25 °C; read-out: log D7.4 (meas.)", "experimental": "Distribution coefficient (D7.4) values of COTI-NH2 were determined by the shake-flask method in n-octanol/buffered aqueous solution at pH 7.4 in 20 mM phosphate buffer (0.10 M KCl) at 25.0 ± 0.2 °C following a similar approach to that reported in our previous works. The other compounds and all of their Cu(II) complexes were too lipophilic to obtain experimental data. Thus, the logP values were calculated for COTI-NMeCy, COTI-Nme2, and COTI-2 (MarvinSketch,version 16.12.12.0, calculation module developed by ChemAxon (Budapest, Hungary), http://www.chemaxon.com/products/marvin/marvinsketch/ (accessed on 20 August 2022))."}, "[6]": {"assay": "Cyclic voltammetry of copper(II)–ligand (1:1) systems", "format": "physicochemical", "details": "cL = cCu(II) = 1 mM, pH 7.40, 25 °C, 90% (v/v) DMSO/H2O, 0.01 V/s scan rate", "experimental": "(§3) Cyclic voltammograms for the Fe(III) and Cu(II) complexes were recorded in 90% (v/v) DMSO/water solution containing 1 mM ligand and 0.5 mM FeCl3 or 1 mM CuCl2 using a conventional three-electrode system under nitrogen atmosphere and a PC-Controlled Electrochemical Measurement System (EF 451). The ionic strength was 0.10 M, adjusted by TBAN. Samples were purged for 15 min with Ar before recording the cyclic voltammograms. Platinum electrodes were used as the working and auxiliary electrodes, and Ag/AgCl (3 M KCl) was applied as the reference electrode. The electrochemical potentials were converted into the normal hydrogen electrode (NHE) scale by adding 0.222 V. The instrument was calibrated with an aqueous solution of K3[Fe(CN)6] (E1/2 = +0.386 V vs. NHE). Redox potentials were obtained at different scan rates (5–25 mV/s) in the range of −0.8 to +0.1 V. The dependence of the peak current values of the square root of the scan rates is shown in Figure S5 for the iron and copper complexes of COTI-NMeCy."}, "[7]": {"assay": "Iron(II) complex formation, UV-vis spectrophotometric titrations (anaerobic)", "format": "physicochemical", "experimental": "as §1"}, "[8]": {"test_system": "GLC-4/adr cells (ABCC1-overexpressing)", "design": "method as in PMID 33190481", "details": "cited from earlier work; for IC50: 72 h, MTT; for Relative Resistance GLC-4/adr: IC50 of GLC-4/adr divided by IC50 of parental GLC-4"}, "SW480 cells": {"test_system": "SW480 cells", "design": "method as in PMID 33190481", "details": "72 h, MTT; cited from earlier work"}, "[9]": {"assay": "pKa by UV-vis spectrophotometric titrations", "format": "physicochemical", "details": "30% (v/v) DMSO/H2O solution, I = 0.1 M (KCl), 25 °C", "experimental": "as §1"}, "[10]": {"assay": "Thermodynamic solubility in water at pH 7.4 (UV-vis)", "format": "physicochemical", "details": "water at pH 7.4 (20 mM HEPES buffer), aqueous buffer, thermodynamic from solid, water pH 7.4 (20 mM HEPES), 25 °C, read-out: S (meas.)", "experimental": "as §2"}, "GLC-4 cells": {"test_system": "GLC-4 cells", "design": "method as in PMID 33190481", "details": "72 h, MTT; cited from earlier work"}, "[11]": {"assay": "Copper(II) complex formation, UV-vis titrations and EDTA competition", "format": "physicochemical", "experimental": "as §1\nThe conditional stability constants (β’) of the Cu(II) complexes were calculated from competition reactions with EDTA at pH = 5.9 using MES (50 mM) when the metal:ligand ratio was 1:1 (clig = cCu between 10 and 80 μM). Individual samples were prepared in which the ligand:EDTA ratio was variable between 1:0 and 1:50. After a 3 h incubation period, UV-vis spectra were collected. The calculation of the β’ (CuL) values was performed following the same method as that in our previous work using the logβ’5.90 = 13.89 of complex [Cu(EDTA)]^2− obtained from the previously reported equilibrium constants of EDTA and its Cu(II) complex."}, "[12]": {"design": "method as in PMID 21523301", "details": "cited from earlier work"}, "[13]": {"design": "method as in doi:10.1002/ejic.200901174", "details": "cited from earlier work"}, "[14]": {"design": "method as in doi:10.1002/ejic.201200360", "details": "cited from earlier work"}, "[15]": {"assay": "Cyclic voltammetry of iron(III)–ligand (1:2) systems", "format": "physicochemical", "details": "cL = 1 mM, pH 7.40, 25 °C, 90% (v/v) DMSO/H2O, 0.01 V/s scan rate", "experimental": "as §3"}, "[16]": {"details": "T = 25.0 °C, I = 0.10 M (KCl), 30% (v/v) DMSO/H2O"}, "[17]": {"details": "calculated at cM = 1 μM, cL = 10 μM, pH = 7.40"}}, "note": "Like-named read-outs stand apart in the source and are kept apart here. Marks after values point to notes of the source that are not given here.", "data": [{"smiles": "NC(=S)N/N=C1\\CCCc2cccnc21", "note": "[COTI-NH2]", "values": [{"measurement": "pFe(III)*", "setting": "[1]; Fe(III) hydroxido species also considered as unbound metal, cFe = 1 μM, cL = 10 μM, pH = 7.40", "result": 10.4}, {"measurement": "logβ [Fe(III)L2]^+", "setting": "[1]; [16]", "result": "32.29 ± 0.08"}, {"measurement": "logβ [Fe(III)L]^2+", "setting": "[1]; [16]", "result": "20.00 ± 0.09"}, {"measurement": "pFe(III)", "setting": "[1]; –log[free Fe(III)] calculated at cFe = 1 μM, cL = 10 μM, pH = 7.40", "result": 18.5}, {"measurement": "Papp", "setting": "[2]", "result": "67 ± 7", "unit": "nm/s"}, {"measurement": "logβ [ZnL2]", "setting": "[3]; [16]", "result": "25.42 ± 0.04"}, {"measurement": "logβ [ZnL]^+", "setting": "[3]; [16]", "result": "14.07 ± 0.04"}, {"measurement": "pZn", "setting": "[3]; [17]", "result": 11.6}, {"measurement": "redox reaction of the copper(II) complex with GSH", "setting": "[4]", "result": "relatively slow redox reaction took place"}, {"measurement": "IC50", "setting": "SW480/Coti cells", "result": "4.39 ± 0.56", "unit": "µM"}, {"measurement": "Relative Resistance SW480/Coti", "setting": "SW480/Coti cells", "result": "0.6 ***"}, {"measurement": "IC50", "setting": "SW480/Tria cells", "result": "> 20", "unit": "µM"}, {"measurement": "Relative Resistance SW480/Tria", "setting": "SW480/Tria cells", "result": ">2.5"}, {"measurement": "logD", "setting": "[5]", "result": 1.64}, {"measurement": "E′ vs. NHE, copper(II)–ligand (1:1) systems", "setting": "[6]", "result": -0.17, "unit": "V"}, {"measurement": "logβ [Fe(II)L2]", "setting": "[7]; [16]", "result": "31.21 ± 0.09"}, {"measurement": "logβ [Fe(II)L]^+", "setting": "[7]; [16]", "result": "17.36 ± 0.06"}, {"measurement": "pFe(II)", "setting": "[7]; –log[free Fe(II)] calculated at cFe = 1 μM, cL = 10 μM, pH = 7.40", "result": 17.4}, {"measurement": "IC50", "setting": "[8]", "result": "3.65 ± 0.41", "unit": "µM"}, {"measurement": "Relative Resistance GLC-4/adr", "setting": "[8]", "result": "1.0 ^n.s."}, {"measurement": "IC50", "setting": "SW480 cells", "result": "7.85 ± 0.92", "unit": "µM"}, {"measurement": "pKa", "setting": "[9]; read-out: pKa (H2L)", "result": "4.39 ± 0.01"}, {"measurement": "pKa", "setting": "[9]; read-out: pKa (HL)", "result": "12.22 ± 0.01"}, {"measurement": "solubility thermodynamic", "setting": "[10]", "result": 737, "unit": "µM"}, {"measurement": "IC50", "setting": "GLC-4 cells", "result": "3.64 ± 0.39", "unit": "µM"}, {"measurement": "pCu", "setting": "[11]; [17]", "result": 13.1}, {"measurement": "logβ5.9′ [CuL]^+", "setting": "[11]; conditional stability constant, EDTA competition at pH = 5.90", "result": "10.59 ± 0.08"}, {"measurement": "logβ [CuL]^+", "setting": "[11]; β = β’ × αH, [H+] = 10^–5.90 M", "result": 16.92}]}, {"smiles": "NC(=S)NN=Cc1ncccc1N", "note": "[Triapine, 3-aminopyridine-2-carboxaldehyde thiosemicarbazone]", "values": [{"measurement": "E′ of the iron complex", "setting": "[12]", "result": "+0.07 V"}, {"measurement": "IC50", "setting": "SW480/Coti cells", "result": "0.81 ± 0.08", "unit": "µM"}, {"measurement": "Relative Resistance SW480/Coti", "setting": "SW480/Coti cells", "result": "1.0 ^n.s."}, {"measurement": "IC50", "setting": "SW480/Tria cells", "result": "> 50", "unit": "µM"}, {"measurement": "Relative Resistance SW480/Tria", "setting": "SW480/Tria cells", "result": ">61"}, {"measurement": "logβ [CuL]^+", "setting": "[13]", "result": 13.9}, {"measurement": "logD7.4", "setting": "[14]", "result": "+0.85"}, {"measurement": "E’ vs. NHE, iron(III)–ligand (1:2) systems", "setting": "[15]", "result": "+0.03 V"}, {"measurement": "E′ vs. NHE, copper(II)–ligand (1:1) systems", "setting": "[6]", "result": -0.13, "unit": "V"}, {"measurement": "IC50", "setting": "[8]", "result": "0.57 ± 0.05", "unit": "µM"}, {"measurement": "Relative Resistance GLC-4/adr", "setting": "[8]", "result": "0.9 ^n.s."}, {"measurement": "IC50", "setting": "SW480 cells", "result": "0.82 ± 0.18", "unit": "µM"}, {"measurement": "IC50", "setting": "GLC-4 cells", "result": "0.65 ± 0.09", "unit": "µM"}]}]}
